# Experimental data published in patent publication US20240148821A1, “PHARMACEUTICAL USE OF CYCLIC PEPTIDE COMPOUND” (CHUGAI SEIYAKU KABUSHIKI KAISHA, priority 2021, published 2024).
# Numbered stars: 1 amine (or outer) side, 2 acyl side, 3 side chain; on linkers, the order of the positions; unused ones are H or OH. Bridge positions count the residues as written; N and C are the ends. Square brackets hold non-standard residues; d marks the D form. Peptide text beside a SMILES is read from it. * marks the point of attachment. hPhe(3,5-F2-4-CF3) = N[C@@H](CCc1cc(F)c(C(F)(F)F)c(F)c1)C(=O)O; hPhe(3-Cl-4-CF3) = N[C@@H](CCc1ccc(C(F)(F)F)c(Cl)c1)C(=O)O; hPhe(3-F,4-CF3) = N[C@@H](CCc1ccc(C(F)(F)F)c(F)c1)C(=O)O; hPhe(4-CF3) = N[C@@H](CCc1ccc(C(F)(F)F)cc1)C(=O)O; NMePhe(4-Cl) = CN[C@@H](Cc1ccc(Cl)cc1)C(=O)O; X51 = CN([C@@](C)(Cc1ccccc1)C(=O)[*:2])[*:1]; NMePhe(4-Me) = CN[C@@H](Cc1ccc(C)cc1)C(=O)O; NMePhe(4-F) = CN[C@@H](Cc1ccc(F)cc1)C(=O)O; X72 = O=C([C@@H]1Cc2ccccc2N1[*:1])[*:2]; NMeGly(cPent) = CN[C@H](C(=O)O)C1CCCC1; Phe(3-I) = N[C@@H](Cc1cccc(I)c1)C(=O)O; Phe(2-F) = N[C@@H](Cc1ccccc1F)C(=O)O; NMe3Pal = CN[C@@H](Cc1cccnc1)C(=O)O; NMeY = CN[C@@H](Cc1ccc(O)cc1)C(=O)O; NMeCha = CN[C@@H](CC1CCCCC1)C(=O)O; NEtLeu = CCN[C@@H](CC(C)C)C(=O)O; NMeChg = CN[C@H](C(=O)O)C1CCCCC1; NMeF = CN[C@@H](Cc1ccccc1)C(=O)O; NMeD = CN[C@@H](CC(=O)O)C(=O)O; CH2CONHtBu = CC(C)(C)NC(=O)C*; NMeL = CN[C@@H](CC(C)C)C(=O)O; NMeV = CN[C@H](C(=O)O)C(C)C; d(β3hA) = C[C@@H](N)CC(=O)O; NMeS = CN[C@@H](CO)C(=O)O; Ac6c = NC1(C(=O)O)CCCCC1; NMeA = CN[C@@H](C)C(=O)O; NMeAib = CNC(C)(C)C(=O)O; Nle = CCCC[C@H](N)C(=O)O; Piperidide = C1CCN(*)CC1; Pra = C#CC[C@H](N)C(=O)O; Pyrrolidide = C1CCN(*)C1; Ac5c = NC1(C(=O)O)CCCC1; Aze = O=C(O)[C@@H]1CCN1; Ac4c = NC1(C(=O)O)CCC1; Aib = CC(C)(N)C(=O)O; Isopentyl = CC(C)CC*; NPrGly = CCCNCC(=O)O; Sar = CNCC(=O)O
# Test system: Human pancreatic cancer cell line AsPC-1 (G12D mutation Kras)
# Test: AsPC-1 cell growth inhibition (AsPC-1 CGI)
# Format: cell-based
# Settings: read-out: AsPC-1 cell growth inhibition, 50% growth inhibitory concentration (IC50 value); 96 hours, CellTiter-Glo, values classified in ranges
# Description: Test compounds were serially dilated with dimethyl sulfoxide, and 200 nL was then dispensed to a U-bottom 96-well plate using Labcyte Echo. […] The cell suspension was dispensed to a. plate containing a test compound at 100 μL per well and incubated at 37° C. in a 5% carbon dioxide gas incubator. 96 hours later, 80 μL of CellTiter-Glo (Promega) was added to each well and fluorescence was measured.
row,Compound,IC50
1,CC[C@H](C)[C@@H]1NC(=O)[C@H](C)N(C)C(=O)C[C@@H](C(=O)N2CCCCC2)N(C)C(=O)[C@H](C(C)C)N(C)C(=O)C2(CCCC2)NC(=O)[C@@H]2CCCN2C(=O)[C@H](CCc2ccc(C(F)(F)F)c(Cl)c2)NC(=O)[C@H]2CCCN2C(=O)[C@H](CC2CCCCC2)N(C)C(=O)CN(C)C(=O)CN(C)C1=O [Compound 135] ([NMeA]I[Sar][Sar][NMeCha][dP][hPhe(3-Cl-4-CF3)]P[Ac5c][NMeV][NMeD]-Piperidide; lactam N-11),> 500 nM
2,CC[C@H](C)[C@@H]1NC(=O)[C@H](CC(C)C)N(C)C(=O)C[C@@H](C(=O)N2CCCCC2)N(C)C(=O)[C@H](C2CCCCC2)N(C)C(=O)C2(CCCC2)NC(=O)[C@H](Cc2ccccc2)N(C)C(=O)[C@H](CCc2ccc(C(F)(F)F)c(Cl)c2)NC(=O)CN(C)C(=O)[C@H](CC2CCCCC2)N(C)C(=O)[C@@H]2CCN2C(=O)CN(C)C1=O [Compound 527] ([NMeL]I[Sar][Aze][NMeCha][Sar][hPhe(3-Cl-4-CF3)][NMeF][Ac5c][NMeChg][NMeD]-Piperidide; lactam N-11),> 500 nM
3,CC(C)C[C@@H]1NC(=O)[C@H](CC(C)C)N(C)C(=O)C[C@@H](C(=O)N2CCCCC2)N(C)C(=O)[C@H](C(C)C)N(C)C(=O)C2(CCCC2)NC(=O)[C@@H]2CCCN2C(=O)[C@H](CCc2ccc(C(F)(F)F)c(Cl)c2)NC(=O)CN(C)C(=O)[C@H](CC2CCCCC2)N(C)C(=O)[C@@H]2CCN2C(=O)[C@H](C)N(C)C1=O [Compound 1754] ([NMeL]L[NMeA][Aze][NMeCha][Sar][hPhe(3-Cl-4-CF3)]P[Ac5c][NMeV][NMeD]-Piperidide; lactam N-11),> 500 nM
4,"CC[C@H](C)[C@@H]1NC(=O)[C@H](CC(C)C)N(CC)C(=O)C[C@@H](C(=O)N(C)C)N(C)C(=O)[C@H](C2CCCC2)N(C)C(=O)C2(CCCC2)NC(=O)[C@@H]2CCCN2C(=O)[C@H](CCc2ccc(C(F)(F)F)c(F)c2)NC(=O)CN(C)C(=O)[C@H](CC2CCCCC2)N(C)C(=O)[C@@H]2CCN2C(=O)[C@H](C)N(C)C1=O [Compound 1324] ([NEtLeu]I[NMeA][Aze][NMeCha][Sar][hPhe(3-F,4-CF3)]P[Ac5c][NMeGly(cPent)][NMeD]-NMe2; lactam N-11)",≤ 20 nM
5,CC[C@H](C)[C@@H]1NC(=O)[C@H](CC(C)C)NC(=O)C[C@@H](C(=O)N2CCCCC2)N(C)C(=O)[C@H](C(C)C)N(C)C(=O)C2(CCCC2)NC(=O)[C@@H]2CCCN2C(=O)[C@H](CCc2ccc(C(F)(F)F)c(Cl)c2)NC(=O)CN(C)C(=O)[C@H](CC2CCCCC2)N(C)C(=O)[C@@H]2CCN2C(=O)[C@H](C)N(C)C1=O [Compound 368] (LI[NMeA][Aze][NMeCha][Sar][hPhe(3-Cl-4-CF3)]P[Ac5c][NMeV][NMeD]-Piperidide; lactam N-11),> 500 nM
6,CC[C@H](C)[C@@H]1NC(=O)[C@H](C)N(C)C(=O)C[C@@H](C(=O)N2CCCCC2)N(C)C(=O)[C@H](C2CCCCC2)N(C)C(=O)C2(CCCC2)NC(=O)[C@H](Cc2cccnc2)N(C)C(=O)[C@H](CCc2ccc(C(F)(F)F)c(Cl)c2)NC(=O)CN(C)C(=O)[C@H](CC2CCCCC2)N(C)C(=O)[C@@H]2CCCN2C(=O)CN(C)C1=O [Compound 433] ([NMeA]I[Sar]P[NMeCha][Sar][hPhe(3-Cl-4-CF3)][NMe3Pal][Ac5c][NMeChg][NMeD]-Piperidide; lactam N-11),> 500 nM
7,CCCC[C@@H]1NC(=O)[C@H](Cc2ccccc2F)NC(=O)CN(C)C(=O)[C@H](Cc2ccc(OC)cc2)N(C)C(=O)CN(C)C(=O)CN(C)C(=O)[C@H]([C@@H](C)CC)NC(=O)[C@H](CC(C)C)N(C)C(=O)C[C@@H](C(=O)N2CCCCC2)N(C)C(=O)[C@H](CC(C)C)NC(=O)[C@H](Cc2ccc(OC)cc2)N(C)C1=O [Compound 681] ([NMeL]I[Sar][Sar][NMeY](Me)[Sar][Phe(2-F)][Nle][NMeY](Me)L[NMeD]-Piperidide; lactam N-11),> 500 nM
8,CC[C@H](C)[C@@H]1NC(=O)[C@H](CC(C)C)N(C)C(=O)C[C@@H](C(=O)N2CCCCC2)N(C)C(=O)[C@H](C2CCCCC2)N(C)C(=O)C2(CCCCC2)NC(=O)[C@@H]2CCCN2C(=O)[C@H](CCc2ccc(C(F)(F)F)c(Cl)c2)NC(=O)CN(C)C(=O)[C@H](CC2CCCCC2)N(C)C(=O)CN(C)C(=O)CN(C)C1=O [Compound 1644] ([NMeL]I[Sar][Sar][NMeCha][Sar][hPhe(3-Cl-4-CF3)]P[Ac6c][NMeChg][NMeD]-Piperidide; lactam N-11),> 500 nM
9,CC[C@H](C)[C@@H]1NC(=O)[C@H](CC(C)C)N(C)C(=O)C[C@@H](C(=O)N(C)C)N(C)C(=O)[C@H](C2CCCC2)N(C)C(=O)C2(CCCC2)NC(=O)[C@@H]2CCCN2C(=O)[C@H](CCc2ccc(C(F)(F)F)c(Cl)c2)NC(=O)CN(C)C(=O)[C@H](Cc2ccc(C)cc2)N(C)C(=O)CN(C)C(=O)CN(C)C1=O [Compound 1779] ([NMeL]I[Sar][Sar][NMePhe(4-Me)][Sar][hPhe(3-Cl-4-CF3)]P[Ac5c][NMeGly(cPent)][NMeD]-NMe2; lactam N-11),≤ 20 nM
10,"CC[C@H](C)[C@@H]1NC(=O)[C@H](CC(C)C)N(C)C(=O)C[C@@H](C(=O)N2CCCC2)N(C)C(=O)[C@H](C2CCCCC2)N(C)C(=O)C2(CCC2)NC(=O)[C@@H]2CCCN2C(=O)[C@H](CCc2cc(F)c(C(F)(F)F)c(F)c2)NC(=O)CN(C)C(=O)[C@H](CC2CCCCC2)N(C)C(=O)CN(C)C(=O)CN(C)C1=O [Compound 1165] ([NMeL]I[Sar][Sar][NMeCha][Sar][hPhe(3,5-F2-4-CF3)]P[Ac4c][NMeChg][NMeD]-Pyrrolidide; lactam N-11)",≤ 20 nM
11,CC[C@H](C)[C@@H]1NC(=O)[C@H](C)N(C)C(=O)C[C@@H](C)NC(=O)[C@H](C2CCCC2)N(C)C(=O)C2(CCCC2)NC(=O)[C@@H]2CCCN2C(=O)[C@H](CCc2ccc(C(F)(F)F)c(Cl)c2)NC(=O)CN(C)C(=O)[C@H](Cc2ccc(F)cc2)N(C)C(=O)[C@@H]2CCCN2C(=O)CN(C)C1=O [Compound 146] (cyclo([Ac5c][NMeGly(cPent)][d(β3hA)][NMeA]I[Sar]P[NMePhe(4-F)][Sar][hPhe(3-Cl-4-CF3)]P)),> 500 nM
12,CC[C@H](C)[C@@H]1NC(=O)[C@H](CC(C)C)N(C)C(=O)C[C@@H](C(=O)N2CCCCC2)N(C)C(=O)[C@H](C2CCCCC2)N(C)C(=O)C2(CCCC2)NC(=O)[C@@H]2Cc3ccccc3N2C(=O)[C@H](CCc2ccc(C(F)(F)F)c(Cl)c2)NC(=O)CN(C)C(=O)[C@H](CC2CCCCC2)N(C)C(=O)CN(C)C(=O)CN(C)C1=O [Compound 514] ([NMeL]I[Sar][Sar][NMeCha][Sar][hPhe(3-Cl-4-CF3)][X72][Ac5c][NMeChg][NMeD]-Piperidide; lactam N-11),> 500 nM
13,CCCN1CC(=O)N(C)[C@@H](CC2CCCCC2)C(=O)N(C)CC(=O)N[C@@H](CCc2ccc(C(F)(F)F)c(Cl)c2)C(=O)N2CCC[C@H]2C(=O)NC2(CCCC2)C(=O)N(C)[C@@H](C(C)C)C(=O)N[C@H](C)CC(=O)N(C)[C@@H](CC(C)C)C(=O)N[C@@H]([C@@H](C)CC)C(=O)N(C)CC1=O [Compound 405] (cyclo([Ac5c][NMeV][d(β3hA)][NMeL]I[Sar][NPrGly][NMeCha][Sar][hPhe(3-Cl-4-CF3)]P)),> 500 nM
14,CC[C@H](C)[C@@H]1NC(=O)[C@H](C)N(C)C(=O)C[C@@H](C)NC(=O)[C@H](C2CCCCC2)N(C)C(=O)C2(CCCC2)NC(=O)[C@@H]2CCCN2C(=O)[C@H](CCc2ccc(C(F)(F)F)c(Cl)c2)NC(=O)CN(C)C(=O)[C@H](CC2CCCCC2)N(C)C(=O)CN(C)C(=O)CN(C)C1=O [Compound 1688] (cyclo([Ac5c][NMeChg][d(β3hA)][NMeA]I[Sar][Sar][NMeCha][Sar][hPhe(3-Cl-4-CF3)]P)),> 500 nM
15,CC[C@H](C)[C@@H]1NC(=O)[C@H](C(C)C)N(C)C(=O)C[C@@H](C)NC(=O)[C@H](CC(C)C)N(C)C(=O)C2(CCCC2)NC(=O)[C@H](CC(C)C)N(C)C(=O)[C@H](CCc2ccc(C(F)(F)F)cc2)NC(=O)CN(C)C(=O)[C@H](Cc2ccc(Cl)cc2)N(C)C(=O)CN(C)C(=O)[C@@H]2CCN2C1=O [Compound 538] (cyclo([Ac5c][NMeL][d(β3hA)][NMeV]I[Aze][Sar][NMePhe(4-Cl)][Sar][hPhe(4-CF3)][NMeL])),> 500 nM
16,C#CC[C@@H]1NC(=O)[C@H](Cc2cccc(I)c2)NC(=O)CN(C)C(=O)[C@H](Cc2ccc(F)cc2)N(C)C(=O)CN(C)C(=O)CN(C)C(=O)[C@H]([C@@H](C)CC)NC(=O)[C@H](CC(C)C)N(C)C(=O)C[C@@H](C(=O)N2CCCCC2)N(C)C(=O)[C@H](CC(C)C)NC(=O)C(C)(C)N(C)C1=O [Compound 1327] ([NMeL]I[Sar][Sar][NMePhe(4-F)][Sar][Phe(3-I)][Pra][NMeAib]L[NMeD]-Piperidide; lactam N-11),> 500 nM
17,CCCC[C@@H]1NC(=O)[C@H](Cc2cccc(I)c2)NC(=O)CN(C)C(=O)[C@H](Cc2ccc(OC)cc2)N(C)C(=O)[C@@H]2CCN2C(=O)CN(C)C(=O)[C@H]([C@@H](C)CC)NC(=O)[C@H](CC(C)C)N(C)C(=O)C[C@@H](C(=O)N2CCCCC2)N(C)C(=O)[C@H](CC(C)C)NC(=O)[C@](C)(Cc2ccccc2)N(C)C1=O [Compound 1058] ([NMeL]I[Sar][Aze][NMeY](Me)[Sar][Phe(3-I)][Nle][X51]L[NMeD]-Piperidide; lactam N-11),> 500 nM
18,CC[C@H](C)[C@@H]1NC(=O)[C@H](CC(C)C)N(C)C(=O)C[C@@H](C(=O)N2CCCCC2)N(C)C(=O)[C@H](CC(C)C)N(C)C(=O)C(C)(C)NC(=O)[C@H](COCC(=O)NC(C)(C)C)N(C)C(=O)[C@H](CCc2ccc(C(F)(F)F)cc2)NC(=O)CN(C)C(=O)[C@H](COCCC(C)C)N(C)C(=O)CN(C)C(=O)CN(C)C1=O [Compound 1502] ([NMeL]I[Sar][Sar][NMeS](Isopentyl)[Sar][hPhe(4-CF3)][NMeS](CH2CONHtBu)[Aib][NMeL][NMeD]-Piperidide; lactam N-11),> 500 nM
